What was measured:
Mus musculus [1] = organism: Mus musculus; assay: Antidepressant activity was evaluated by measuring its ability to antagonize RO 4-1284-induced hypothermia in mice; type: functional
Mus musculus [2] = organism: Mus musculus; assay: Antidepressant activity was evaluated by measuring its ability to antagonize reserpine-induced ptosis in mice; type: functional
[3] = Acute cytotoxicity was evaluated as LD50 in mice (ip); type: organism-based; settings: mouse, in vivo
[4] = target: T1, Amine oxidase [flavin-containing] B (Rattus norvegicus, UniProt P19643); assay: Concentration required to inhibit Monoamine oxidase B in rat brain using [14C]phenylethylamine; type: tissue-based; set-up: Control: scale not given: the % may be the effect or the level left
T1 sequence (P19643 whole entry): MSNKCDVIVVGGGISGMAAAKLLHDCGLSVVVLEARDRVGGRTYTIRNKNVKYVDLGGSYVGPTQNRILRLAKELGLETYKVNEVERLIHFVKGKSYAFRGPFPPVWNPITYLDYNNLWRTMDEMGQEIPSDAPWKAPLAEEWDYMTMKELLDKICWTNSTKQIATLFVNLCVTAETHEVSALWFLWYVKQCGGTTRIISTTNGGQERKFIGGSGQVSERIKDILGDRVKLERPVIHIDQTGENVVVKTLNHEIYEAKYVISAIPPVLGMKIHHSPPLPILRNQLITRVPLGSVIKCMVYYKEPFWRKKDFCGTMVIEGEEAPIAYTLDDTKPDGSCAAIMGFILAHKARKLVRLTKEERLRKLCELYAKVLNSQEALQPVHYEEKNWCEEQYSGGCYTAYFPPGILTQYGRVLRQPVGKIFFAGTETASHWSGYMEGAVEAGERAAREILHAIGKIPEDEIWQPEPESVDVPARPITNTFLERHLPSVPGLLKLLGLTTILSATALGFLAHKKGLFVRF

[5] = target: T2, Amine oxidase [flavin-containing] A (Rattus norvegicus, UniProt P21396); assay: Concentration required to inhibit Monoamine oxidase A activity in rat brain using [14C]5-HT; type: tissue-based
T2 sequence (P21396 whole entry): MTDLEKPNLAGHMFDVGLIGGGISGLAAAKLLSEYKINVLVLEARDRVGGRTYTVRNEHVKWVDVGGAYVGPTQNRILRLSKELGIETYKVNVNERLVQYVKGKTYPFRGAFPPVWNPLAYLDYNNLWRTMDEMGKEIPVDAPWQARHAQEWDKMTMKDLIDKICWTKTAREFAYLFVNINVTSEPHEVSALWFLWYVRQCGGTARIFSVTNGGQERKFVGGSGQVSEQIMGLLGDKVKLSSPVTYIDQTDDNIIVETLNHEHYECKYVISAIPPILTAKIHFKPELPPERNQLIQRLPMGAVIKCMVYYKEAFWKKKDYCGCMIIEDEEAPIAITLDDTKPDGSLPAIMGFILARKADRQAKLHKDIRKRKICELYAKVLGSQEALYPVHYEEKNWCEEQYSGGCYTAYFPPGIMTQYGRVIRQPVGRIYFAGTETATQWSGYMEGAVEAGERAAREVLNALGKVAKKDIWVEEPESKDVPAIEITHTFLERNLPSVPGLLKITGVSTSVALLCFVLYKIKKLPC

Rattus norvegicus [6] = organism: Rattus norvegicus; assay: Concentration required to inhibit [3H]- NE(norepinephrine) uptake in to rat cortical synaptosomes; type: functional; set-up: scale not given: the % may be the effect or the level left; settings: Brain
Rattus norvegicus [7] = assay: Ability of compound to inhibity the ability of NE to enhance the inhibition produced by GABA after 1 i.p. injection of 10 mg/kg administered (acute treatment); type: functional; settings: ip, route intraperitoneal
Rattus norvegicus [8] = assay: Percent inhibitory activity caused by norepinephrine after 1 i.p. injection of 10 mg/kg administered (acute treatment); type: functional; settings: ip, route intraperitoneal
Rattus norvegicus [9] = assay: Percent inhibitory activity caused by norepinephrine after ip injection of 10 mg/kg administered once a day for 21 days (chronic treatment); type: functional; settings: 504 h, route intraperitoneal
Rattus norvegicus [10] = assay: Ability of compound to inhibity the ability of NE to enhance the inhibition produced by GABA after ip injection of 10 mg/kg administered once a day for 21 days (chronic treatment); type: functional; settings: 504 h, route intraperitoneal
Rattus norvegicus [11] = organism: Rattus norvegicus; assay: Concentration required to inhibit [3H]- NE(norepinephrine) uptake into rat cortical synaptosomes; type: functional; set-up: scale not given: the % may be the effect or the level left; settings: Brain
Rattus norvegicus [12] = assay: Inhibitory activity of compound against ability of NE to enhance the inhibition produced by GABA after 1 i.p. injection of 10 mg/kg administered (acute treatment); type: functional; settings: ip, route intraperitoneal
Rattus norvegicus [13] = assay: Inhibitory activity of compound against ability of NE to enhance the inhibition produced by GABA after ip injection of 10 mg/kg administered once a day for 21 days (chronic treatment); type: functional; settings: 504 h, route intraperitoneal

Structure (SMILES) | ED50 (Mus musculus [1]) [mg/kg] | ED50 (Mus musculus [2]) [mg/kg] | LD50 [3] [mg/kg] | also measured
C#CCN(C)[C@H](C)Cc1ccccc1 [SELEGILINE] | 1.8 | 4.9 | 200 | Control [4]: 13%
CNCCCC1c2ccccc2C=Cc2ccccc21 [PROTRIPTYLINE] | 0.14 | 0.43 | 50 | 
Cn1c(S)nnc1-c1ccccc1 | > 50 | > 200 | > 800 | 
Cn1nc(-c2ccc(F)cc2F)n(C)c1=S | 1 | 2.37 | 400 | 
Cn1nc(-c2cccc3ccccc23)n(C)c1=S | > 50 | > 200 | > 800 | 
Cn1nc(-c2ccc(Cl)cc2)nc1S | > 50 | > 200 | > 800 | 
Cn1nc(-c2ccc(Cl)cc2)n(C)c1=S | 1.34 | 0.27 | 400 | MAO-B activity (% of control) [4]: 75%; MAO-A activity remaining (% of control) [5]: 109%; Control (Rattus norvegicus [6]): 90%; inhibition in vivo at 10 mg/kg (Rattus norvegicus [7]): 33%; inhibition in vivo at 10 mg/kg (Rattus norvegicus [8]): 6.3%; inhibition in vivo at 10 mg/kg (Rattus norvegicus [9]): 10.9%; inhibition in vivo at 10 mg/kg (Rattus norvegicus [10]): 0%
Cn1nc(-c2cccc(F)c2)n(C)c1=S [SURITOZOLE] | 0.37 | 0.29 | 200 | MAO-B activity (% of control) [4]: 96%; MAO-A activity remaining (% of control) [5]: 105%; Control (Rattus norvegicus [6]): 110%
C#CCN(C)Cc1ccccc1 [PARGYLINE] | 13.6 | 37.1 | 400 | 
Cn1nc(-c2ccc(Cl)cc2Cl)n(C)c1=S | > 25 |  | > 80 | 
CN(C)CCC=C1c2ccccc2CCc2ccccc21 [AMITRIPTYLINE] | 0.36 | 8.73 | 100 | 
CCn1c(-c2ccccc2)nn(C)c1=S | 0.58 | 1.2 | 400 | 
Cn1c(S)nnc1-c1ccccc1F | > 25 | > 200 | > 800 | 
Cn1nc(-c2ccc(F)cc2)n(C)c1=S | 0.61 | 1 | 200 | MAO-B activity (% of control) [4]: 90%; MAO-A activity remaining (% of control) [5]: 70%; Control (Rattus norvegicus [6]): 104%
CNCCC=C1c2ccccc2CCc2ccccc21 [NORTRIPTYLINE] | 0.71 | 4.85 | 50 | 
CN(C)CCCN1c2ccccc2CCc2ccccc21 [IMIPRAMINE] | 0.5 |  |  | 
Cc1ccc(-c2nn(C)c(=S)n2C)cc1 | 1.74 | 4.2 | 400 | 
Cn1c(S)nnc1-c1ccc(Cl)cc1 | > 50 | > 200 | > 800 | 

Structure (SMILES) | ED50 (Mus musculus [1]) [mg/kg] | ED50 (Mus musculus [2]) [mg/kg] | LD50 [3] [mg/kg] | also measured
Cn1nc(-c2ccc3c(c2)OCO3)n(C)c1=S | > 50 | > 200 | > 800 | 
CCn1nc(-c2ccc(Cl)cc2)n(C)c1=S | > 50 | 100 | 400 | 
Cn1nc(-c2c(Cl)cccc2Cl)n(C)c1=S | > 50 | > 100 | 400 | 
Cn1nc(-c2cccc(C(F)(F)F)c2)n(C)c1=S | > 50 | > 200 | 400 | 
Cn1nc(-c2ccccc2)n(C)c1=O | > 50 | > 200 | 400 | 
CC(Cc1ccccc1)NN (stereo not given) [PHENIPRAZINE] | 1.1 | 1.61 | 100 | 
CCCn1c(-c2ccc(Cl)cc2)nn(C)c1=S | > 12.5 | 12.5 | 200 | 
Cn1nc(-c2ccc(Cl)c(Cl)c2)n(C)c1=S | 29 | 4.4 | > 800 | 
Fc1ccc(-c2n[nH]c(S)n2)cc1 | > 50 | > 200 | 400 | 
Sc1n[nH]c(-c2ccc(Cl)cc2)n1 | > 50 | > 200 | > 800 | 
Cn1nc(-c2ccccc2Cl)n(C)c1=S | 0.37 | 0.58 | 200 | 
Cn1nc(-c2ccccc2)n(C)c1=S | 0.15 | 0.13 | 100 | MAO-B activity (% of control) [4]: 110%; MAO-A activity remaining (% of control) [5]: 104%; Control (Rattus norvegicus [11]): 92%
COc1ccc(-c2nn(C)c(=S)n2C)cc1 | > 25 | 3.3 | > 800 | 
Cn1nc(-c2ccccc2F)n(C)c1=S | 0.74 | 0.23 | 400 | MAO-B activity (% of control) [4]: 96%; MAO-A activity remaining (% of control) [5]: 72%; Control (Rattus norvegicus [11]): 106%
Cn1nc(-c2c(F)cccc2F)n(C)c1=S | 0.44 | 0.36 | 400 | MAO-B activity (% of control) [4]: 97%; MAO-A activity remaining (% of control) [5]: 104%; Control (Rattus norvegicus [6]): 105%
CNCCCN1c2ccccc2CCc2ccccc21 [DESIPRAMINE] | 0.94 | 1.86 | 75 | Control (Rattus norvegicus [6]): 37%; inhibition in vivo at 10 mg/kg (Rattus norvegicus [12]): 68%; inhibition in vivo at 10 mg/kg (Rattus norvegicus [13]): 49%; inhibition in vivo at 10 mg/kg (Rattus norvegicus [8]): 3.5%; inhibition in vivo at 10 mg/kg (Rattus norvegicus [9]): 7.8%
CCn1c(-c2ccc(Cl)cc2)nn(C)c1=S | > 50 | 21.2 | > 800 | 

— ChEMBL document CHEMBL1124139, “2,4-Dihydro-3H-1,2,4-triazole-3-thiones as potential antidepressant agents” (J Med Chem, 1988)
